tested on: herpes simplex virus type 1 (HSV-1) GHSV-UL46 strain; test: HSV-1 cytopathic effect (CPE) assay; type: cell-based; details: Human alphaherpesvirus 1, Vero C1008, in Chlorocebus sabaeus, 120 h, read-out: HSV-1 cytopathic effect EC50, HSV-1 GHSV-UL46 in Vero E6 cells, 5 days culture, CCK8 readout
Experimental: To evaluate the antiviral activity of compounds against the herpes simplex virus type 1 (HSV-1) GHSV-UL46 strain in the cytopathic effect (CPE) assay.
Virus: HSV-1 GHSV-UL46, ATCC # VR-1544
Cells: African green monkey kidney cell Vero E6, obtained from Wuhan Institute of Virology, Chinese Academy of Sciences.
1.4. The cells were diluted to 1.33×10^5 cells/ml using cytopathic assay medium. The diluted cell suspension was added to a 384-well plate (Corning #3701) by using Multidrop, and 30 μl of the diluted cell suspension (4000 cells) per well were added.
2.2. Compounds were added to cell-inoculated 384-well plates using an ECHO 555 liquid workstation. Eight concentrations were tested in duplicate for each assay compound. For the cell control wells, neither compound nor virus was added. For the virus control wells, no compound was added. The final concentration of DMSO in all the wells was 0.5%.
2.3. The virus was diluted with the assay medium at an inoculation amount of 1.5 TCID90/well, 30 μl. The assay medium was added to the cell control wells with Multidrop, 30 μl per well. Then the diluted virus was added to the compound test wells and the virus control wells with Multidrop, 30 μl per well.
2.4. The cell plates were placed and cultured in a 37° C., CO2 cell incubator for 5 days.
3.2. CCK8 was added to the cell plate with Multidrop, 6 μl per well.
3.4. The absorbance of each well of the cell plate was read with a microplate reader at a wavelength of 450 nm, and 630 nm was used as the reference wavelength. The raw data were obtained by substrating the absorbance at 630 nm from the absorbance at 450 nm (Raw data=OD450-OD630).
4.1. The antiviral activity (% Inhibition) of the assay compound was calculated using the following equation: […]
wherein, Sample is the absorbance of the compound test well; cell control is the average of the absorbances of the cell control wells; and virus control is the average of the absorbances of the virus control wells.
4.2. Dose-response curves were plotted using GraphPad Prism software and the half maximal effective concentration (EC50) of the assay compounds was determined.

SMILES | EC50 [nM]
Cc1nc(N(C)C(=O)C2Cc3ccc(-c4ccccn4)cc3C2)sc1S(N)(=O)=O (single isomer, unassigned) [WX037] | 7
Cc1nc(N(C)C(=O)[C@@H]2CCc3cc(-c4ccccn4)ccc32)sc1S(N)(=O)=O [WX017] | 46
Cc1nc(N(C)C(=O)[C@H]2CCc3cc(-c4ccccn4)ccc32)sc1S(N)(=O)=O [WX018] | 250
Cc1nc(N(C)C(=O)[C@@H]2CCCc3cc(-c4ccccn4)ccc32)sc1S(N)(=O)=O [WX030] | 950
Cc1nc(N(C)C(=O)[C@H]2CCCc3cc(-c4ccccn4)ccc32)sc1S(N)(=O)=O [WX031] | 770
Cc1nc(N(C)C(=O)C2Cc3ccc(-c4ccccn4)cc3C2)sc1S(N)(=O)=O (centres unmarked) [WX036] | > 1000
Cc1nc(N(C)C(=O)N2Cc3ccc(-c4ccccn4)cc3C2)sc1S(N)(=O)=O [WX042] | 42
Cc1nc(N(C)C(=O)C2Cc3ccc(-c4ccccn4)cc3C2)sc1S(=O)(=O)NC1CC1 (centres unmarked) [WX043] | 9
CC(=O)OCC1(C(=O)N(C)c2nc(C)c(S(N)(=O)=O)s2)Cc2ccc(-c3ccccn3)cc2C1 (centres unmarked) [WX072] | 360
Cc1nc(N(C)C(=O)C2(CO)Cc3ccc(-c4ccccn4)cc3C2)sc1S(N)(=O)=O (centres unmarked) [WX073] | 120
Cc1nc(N(C)C(=O)C2(C)Cc3ccc(-c4ccccn4)cc3C2)sc1S(N)(=O)=O (centres unmarked) [WX074] | 43
Cc1nc(N(C)C(=O)N2CCc3ccc(-c4ccccn4)cc3C2)sc1S(N)(=O)=O [WX128] | 140
COc1cccc(-c2ccc3c(c2)CC(C(=O)N(C)c2nc(C)c(S(N)(=O)=O)s2)C3)n1 (centres unmarked) [WX129] | 46
Cc1nc(N(C)C(=O)C2Cc3ccc(-c4nccs4)cc3C2)sc1S(N)(=O)=O (centres unmarked) [WX130] | 17
Cc1nc(N(C)C(=O)C2COc3ccc(-c4ccccn4)cc3C2)sc1S(N)(=O)=O (centres unmarked) [WX131] | 130
Cc1nc(N(C)C(=O)C2CCc3ccc(-c4ccccn4)cc3C2)sc1S(N)(=O)=O (centres unmarked) [WX133] | 140
Cc1nc(N(C)C(=O)C2Cc3ccc(-c4cccc(N(C)C)n4)cc3C2)sc1S(=O)(=O)NC1CC1 (centres unmarked) [WX142] | 150
Cc1nc(N(C)C(=O)C2Cc3ccc(Oc4ccccn4)cc3C2)sc1S(N)(=O)=O (centres unmarked) [WX144] | 410
Cc1cccc(-c2ccc3c(c2)C[C@@H](C(=O)N(C)c2nc(C)c(S(N)(=O)=O)s2)C3)n1 [WX146] | 12
Cc1cccc(-c2ccc3c(c2)C[C@H](C(=O)N(C)c2nc(C)c(S(N)(=O)=O)s2)C3)n1 [WX147] | 780
Cc1nc(N(C)C(=O)[C@H]2Cc3ccc(-c4cccc(N(C)C)n4)cc3C2)sc1S(N)(=O)=O [WX148] | 44
Cc1nc(N(C)C(=O)[C@@H]2Cc3ccc(-c4cccc(N(C)C)n4)cc3C2)sc1S(N)(=O)=O [WX149] | 550
Cc1nc(N(C)C(=O)[C@H]2Cc3ccc(-c4cccc(N)n4)cc3C2)sc1S(N)(=O)=O [WX150] | 12
Cc1nc(N(C)C(=O)[C@@H]2Cc3ccc(-c4cccc(N)n4)cc3C2)sc1S(N)(=O)=O [WX151] | 230
Cc1nc(N(C)C(=O)[C@H]2Cc3ccc(-c4cccc(N)n4)cc3C2)sc1S(=O)(=O)NC1CC1 [WX152] | 7
Cc1nc(N(C)C(=O)[C@@H]2Cc3ccc(-c4cccc(N)n4)cc3C2)sc1S(=O)(=O)NC1CC1 [WX153] | 810
Cc1nc(N(C)C(=O)[C@H]2Cc3ccc(-c4ncccc4F)cc3C2)sc1S(N)(=O)=O [WX154] | 310
Cc1nc(N(C)C(=O)[C@@H]2Cc3ccc(-c4ncccc4F)cc3C2)sc1S(N)(=O)=O [WX155] | 24
Cc1nc(N(C)C(=O)C2Cc3cc(Cl)c(-c4ccccn4)cc3C2)sc1S(N)(=O)=O (centres unmarked) [WX156] | 650

same assay, conditions: read-out: HSV-1 cytopathic effect EC50; HSV-1 GHSV-UL46 in Vero E6 cells, 5 days culture, CCK8 readout

SMILES | EC50 [nM]
Cc1nc(N(C)C(=O)C2Cc3cc(F)c(-c4ccccn4)cc3C2)sc1S(N)(=O)=O (centres unmarked) [WX158] | > 1000
Cc1nc(N(C)C(=O)C2Cc3cc(F)c(-c4ccccn4)cc3C2)sc1S(N)(=O)=O (centres unmarked) [WX159] | 17

tested on: not listed separately; test: Pharmacokinetics of compounds in mice in vivo; details: male, mouse, in vivo; Balb/c mice, oral administration (gavage) 1.0 mg/kg; read-out: Bioavailability F
Experimental: Objective: To test the pharmacokinetics of compounds in mice in vivo.
Balb/c mice (male, 18-22 g, 6-8 weeks old, Shanghai Slack)
The pharmacokinetics profile of the compound in rodent was tested using a standard protocol after intravenous and oral administrations. The candidate compound was prepared as a corresponding solution, which was administered as a single intravenous injection (1.0 mg/kg, 5% DMSO/95% 20% hydroxypropyl-β-cyclodextrin) or gavage (1.0 mg/kg, 0.5% methyl Cellulose MC4000). The whole blood samples were collected within 24 hours, centrifuged at 3000 g for 15 minutes, and plasma samples were obtained by separating the supernatant. 4 times volume of acetonitrile solution containing an internal standard was added to precipitate proteins. After centrifugation, the supernatant was collected, to which an equal volume of water was added, and further centrifuged to collect the supernatant. The LC-MS/MS analysis method was used to quantitatively analyze the plasma concentration, and the pharmacokinetics parameters, such as peak concentration, peak time, clearance rate, half-life, area under the curve, and bioavailability were calculated.

SMILES | bioavailability [%]
Cc1nc(N(C)C(=O)Cc2ccc(-c3ccccn3)cc2)sc1S(N)(=O)=O [Pritelivir, reference compound] | 100

same assay, conditions: male, mouse, in vivo; Balb/c mice, oral administration (gavage) 1.0 mg/kg; read-out: Concentration Integral AUC

SMILES | AUC [µM·h]
Cc1nc(N(C)C(=O)Cc2ccc(-c3ccccn3)cc2)sc1S(N)(=O)=O [Pritelivir, reference compound] | 129

same assay, conditions: male, mouse, in vivo; Balb/c mice, single intravenous injection 1.0 mg/kg

SMILES | clearance [mL/min/kg]
Cc1nc(N(C)C(=O)Cc2ccc(-c3ccccn3)cc2)sc1S(N)(=O)=O [Pritelivir, reference compound] | 0.4

same assay, conditions: male, mouse, plasma; Balb/c mice, oral administration (gavage) 1.0 mg/kg; read-out: Bioavailability F

SMILES | bioavailability [%]
Cc1nc(N(C)C(=O)C2Cc3ccc(-c4ccccn4)cc3C2)sc1S(N)(=O)=O (single isomer, unassigned) [WX037] | 75

same assay, conditions: male, mouse, plasma; Balb/c mice, oral administration (gavage) 1.0 mg/kg; read-out: Concentration Integral AUC

SMILES | AUC [µM·h]
Cc1nc(N(C)C(=O)C2Cc3ccc(-c4ccccn4)cc3C2)sc1S(N)(=O)=O (single isomer, unassigned) [WX037] | 24.4

same assay, conditions: male, mouse, plasma; Balb/c mice, single intravenous injection 1.0 mg/kg

SMILES | clearance [mL/min/kg]
Cc1nc(N(C)C(=O)C2Cc3ccc(-c4ccccn4)cc3C2)sc1S(N)(=O)=O (single isomer, unassigned) [WX037] | 1.2

same assay, conditions: male, mouse, plasma; Balb/c mice, single intravenous injection 1.0 mg/kg; read-out: Half life T1/2 (converted)

SMILES | half-life [h]
Cc1nc(N(C)C(=O)C2Cc3ccc(-c4ccccn4)cc3C2)sc1S(N)(=O)=O (single isomer, unassigned) [WX037] | 6
